For this test, the system named is MRSA. As to the kind of experiment: IC50 / growth inhibition of photodynamic inactivation, MRSA. It is filed as cell-based, methicillin-resistant S. aureus.

From publication PMC7822816, “Halo-fluorescein for photodynamic bacteria inactivation in extremely acidic conditions” (Nature Communications, 2021) come the findings set out here.

SMILES strings stand for the structures.

A word on the IC50: it is the concentration needed to halve the response being measured. Low readings indicate greater potency in that assay, high ones weaker potency in that assay. As for `O=C(O)c1ccccc1-c1c2cc(I)c(=O)c(I)c-2oc2c(I)c(O)c(I)cc12` [TIF, 2′,4′,5′,7′-tetraiodofluorescein], for the setting “Staphylococcus aureus, 10 min, pH 2.5, LED 520 nm, 35 mW/cm^2, 10 min”, the IC50 stood at 340 nM. In addition, the Inhibition ratio (dose 2.0 μM, 3 V/3 W, 6 mW/cm2, 10 min) is recorded as above 97.1%.
